Source: patent US20220009894A1, “1,2,3,4-TETRAHYDROQUINOXALINE DERIVATIVE, PREPARATION METHOD THEREFOR AND APPLICATION THEREOF” (Abbisko Therapeutics Co., Ltd., priority 2019, published 2022)

Key:
RORγt-LBD = molecular target: T1, RORγt-LBD (Homo sapiens, UniProt P51449); assay: Time-resolved fluorescence resonance energy-transfer assay (TR-FRET), co-activator peptide recruitment; format: biochemical; set-up: TR-FRET Biochemical Amax: unit not given here; settings: for EC50: His-RORγt-LBD 30 nM, SRC peptide 500 nM, agonistic activity, averages of one or more measurements, read-out: TR-FRET Biochemical EC50/; for TR-FRET Biochemical Amax: upper activation limit, His-RORγt-LBD, SRC peptide
T1 sequence (P51449 269-508 limits assumed): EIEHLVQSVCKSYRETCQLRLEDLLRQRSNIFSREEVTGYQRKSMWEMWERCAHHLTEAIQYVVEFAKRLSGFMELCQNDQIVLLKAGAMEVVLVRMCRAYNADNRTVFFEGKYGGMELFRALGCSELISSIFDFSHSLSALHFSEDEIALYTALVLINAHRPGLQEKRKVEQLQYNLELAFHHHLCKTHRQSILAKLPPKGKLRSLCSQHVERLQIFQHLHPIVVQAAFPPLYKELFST
Outline: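 Eu-anti-His-labelled His-RORγt-LBD (30 nM final) recruits biotin-SRC co-activator peptide (500 nM final), detected via APC-streptavidin (5 nM) and Eu-anti-His (0.25 nM). Buffer was Tris/KCl/EDTA at pH 7.0 with 0.01% Triton X-100 and 1 mM DTT. Compounds were tested at 7 points in 5-fold dilutions. Plates were incubated overnight at 4 °C then 1 h at RT, and agonism was read as the 665/615 nm ratio.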

RORγt = molecular target: T2, RORγt (Homo sapiens, UniProt P51449); assay: RORγt cellular reporter gene detection assay; format: cell-based; settings: 24 hrs; for EC50: HEK 293 cells co-transfected with pFN26A-RORγt-LBD and pG14.35, in presence of antagonist Ursolic acid, top concentration 50 μM; for Cellular Reporter Assay Amax: upper activation limit, HEK 293 cells, in presence of antagonist Ursolic acid;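 on Cellular Reporter Assay Amax: Ursolic Acid added as 5 µL of 20 µM medium per well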
T2 construct: The plasmid of pFN26A-RORγt-LBD and pG14.35 (Promega, Cat. No. E1370) were co-transfected into HEK 293 cells; expressed in transfected cells; host or cells: HEK 293 cells (Cat. No. GNHu18)
T2 sequence (P51449 269-508 limits assumed): T1 sequence (P51449 269-508 limits assumed)
Outline: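 HEK293 cells co-transfected with RORγt-LBD and luciferase reporter plasmids, treated with Ursolic acid antagonist plus compound in 4-fold dilutions from 50 μM for 24 h at 37° C. Firefly and Renilla luminescence read; EC50 and Amax from four-parameter fit.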

Row | SMILES | EC50 (RORγt-LBD) | TR-FRET Biochemical Amax (RORγt-LBD) | EC50 (RORγt) | Cellular Reporter Assay Amax (RORγt)
1 | NC(=O)OC1CCN2c3ccc(-c4cc(F)cc(OC(F)F)c4)cc3N(S(=O)(=O)c3cccc(C(F)(F)F)c3)C[C@@H]2C1 (stereo partly drawn) [Example 104, (6aS)-3-(3-(difluoromethoxy)-5-fluorophenyl)-5-((3-(trifluoromethyl)phenyl)sulfonyl)-6,6a,7,8,9,10-hexahydro-5H-pyrido[1,2-a]quinoxalin-8-yl carbamate] | 46.3 nM | 0.81 | 344 nM | 2.3
2 | O=S(=O)(c1cccc(C(F)(F)F)c1)N1C[C@@H]2CC(O)CCN2c2ccc(-c3cc(F)cc(OC(F)F)c3)cc21 (stereo partly drawn) [Example 105, (6aS)-3-(3-(difluoromethoxy)-5-fluorophenyl)-5-((3-(trifluoromethyl)phenyl)sulfonyl)-6,6a,7,8,9,10-hexahydro-5H-pyrido[1,2-a]quinoxalin-8-ol] | 170 nM | 0.69 | 955 nM | 4.8
3 | O=C(O)COC1CCN2c3ccc(-c4cc(F)cc(OC(F)F)c4)cc3N(S(=O)(=O)c3cccc(C(F)(F)F)c3)C[C@@H]2C1 (stereo partly drawn) [Example 106, 2-(((6aS)-3-(3-(difluoromethoxy)-5-fluorophenyl)-5-((3-(trifluoromethyl)phenyl)sulfonyl)-6,6a,7,8,9,10-hexahydro-5H-pyrido[1,2-a]quinoxalin-8-yl)oxy)acetic acid] | 72.5 nM | 0.48 | 704 nM | 4.1
4 | C[C@@]1(O)CCN2c3ccc(-c4cc(F)cc(OC(F)F)c4)cc3N(S(=O)(=O)c3cccc(C(F)(F)F)c3)C[C@@H]2C1 [Example 107, (6aS,8R)-3-(3-(difluoromethoxy)-5-fluorophenyl)-8-methyl-5-((3-(trifluoromethyl)phenyl)sulfonyl)-6,6a,7,8,9,10-hexahydro-5H-pyrido[1,2-a]quinoxalin-8-ol] | 98.3 nM | 1.31 | 643 nM | 3.0
5 | C[C@]1(O)CCN2c3ccc(-c4cc(F)cc(OC(F)F)c4)cc3N(S(=O)(=O)c3cccc(C(F)(F)F)c3)C[C@@H]2C1 [Example 108, (6aS,8S)-3-(3-(difluoromethoxy)-5-fluorophenyl)-8-methyl-5-((3-(trifluoromethyl)phenyl)sulfo-nyl)-6,6a,7,8,9,10-hexa-hydro-5H-pyrido[1,2-a]quinoxalin-8-ol] | 55.4 nM | 0.99 | 1980 nM | 4.0
6 | O=C(O)CCOC1CCN2c3ccc(-c4cc(F)cc(OC(F)F)c4)cc3N(S(=O)(=O)c3cccc(C(F)(F)F)c3)C[C@@H]2C1 (stereo partly drawn) [Example 109, 3-(((6aS)-3-(3-(difluoromethoxy)-5-fluorophenyl)-5-((3-(trifluoromethyl)phenyl)sulfonyl)-6,6a,7,8,9,10-hexahydro-5H-pyrido[1,2-a]quinoxalin-8-yl)oxy)propanoic acid] | 17.5 nM | 0.65 | 468 nM | 5.9
7 | CS(=O)(=O)COC1CCN2c3ccc(-c4cc(F)cc(OC(F)F)c4)cc3N(S(=O)(=O)c3cccc(C(F)(F)F)c3)C[C@@H]2C1 (stereo partly drawn) [Example 110, (6aS)-3-(3-(difluoromethoxy)-5-fluorophenyl)-8-((methylsulfonyl)methoxy)-5-((3-(trifluoromethyl)phenyl)sulfonyl)-6,6a,7,8,9,10-hexahydro-5H-pyrido[1,2-a]quinoxaline] | 12.1 nM | 0.76 | 214 nM | 2.8
8 | CS(=O)(=O)CCOC1CCN2c3ccc(-c4cc(F)cc(OC(F)F)c4)cc3N(S(=O)(=O)c3cccc(C(F)(F)F)c3)C[C@@H]2C1 (stereo partly drawn) [Example 111, (6aS)-3-(3-(difluoromethoxy)-5-fluorophenyl)-8-((methylsulfonyl)ethoxy)-5-((3-(trifluoromethyl)phenyl)sulfonyl)-6,6a,7,8,9,10-hexahydro-5H-pyrido[1,2-a]quinoxaline] | 18.9 nM | 0.64 | 564 nM | 3.2
9 | O=S(=O)(c1cccc(C(F)(F)F)c1)N1C[C@@H]2CC(O[C@@H]3O[C@H](CO)[C@@H](O)[C@H](O)[C@H]3O)CCN2c2ccc(-c3cc(F)cc(OC(F)F)c3)cc21 (stereo partly drawn) [Example 112, (2R,3R,4S,5S,6R)-2-(((6aS)-3-(3-(difluoromethoxy)-5-fluorophenyl)-5-((3-(trifluoromethyl)phenyl)sulfonyl)-6,6a,7,8,9,10-hexahydro-5H-pyrido[1,2-a]quinoxalin-8-yl)oxy)-6-(hydroxymethyl)tetrahydro-2H-pyran-3,4,5-triol] | 273 nM | 0.33 | 1940 nM | 5.6
10 | C[C@@]1(OCCC(=O)O)CCN2c3ccc(-c4cc(F)cc(OC(F)F)c4)cc3N(S(=O)(=O)c3cccc(C(F)(F)F)c3)C[C@@H]2C1 [Example 113, 3-(((6aS,8R)-3-(3-(difluoromethoxy)-5-fluorophenyl)-8-methy 1-5-((3-(trifluoromethyl)phenyl)sulfonyl)-6,6a,7,8,9,10-hexahydro-5H-pyrido[1,2-a]quinoxalin-8-yl)oxy)propanoic acid] | 21.9 nM | 0.71 | 149 nM | 2.8
11 | C[C@]1(OCCC(=O)O)CCN2c3ccc(-c4cc(F)cc(OC(F)F)c4)cc3N(S(=O)(=O)c3cccc(C(F)(F)F)c3)C[C@@H]2C1 [Example 114, 3-(((6aS,8S)-3-(3-(difluoro-methoxy)-5-fluorophenyl)-8-methyl-5-((3-(trifluorometh-yl)phenyl)sulfonyl)-6,6a,7,8,9,10-hexahydro-5H-py-rido[1,2-a]quinoxalin-8-yl)oxy)propanoic acid] | 113 nM | 0.51 | 969 nM | 5.3
12 | O=C(O)CCO[C@@H]1CCN2c3ccc(-c4cc(F)cc(OC(F)F)c4)cc3N(S(=O)(=O)c3cccc(C(F)(F)F)c3)C[C@@H]2C1 [Example 115, 3-(((6aS,8R)-3-(3-(difluorometh-oxy)-5-fluorophenyl)-5-((3-(tri-fluoromethyl)phenyl)sulfonyl)-6,6a,7,8,9,10-hexahydro-5H-pyrido[1,2-a]quinoxalin-8-yl)oxy)propanoic acid] | 67.9 nM | 0.71 | 178 nM | 5.4
13 | O=C(O)[C@H]1CCN2c3ccc(-c4cc(F)cc(OC(F)F)c4)cc3N(S(=O)(=O)c3cccc(C(F)(F)F)c3)C[C@@H]2C1 [Example 116, (6aS,8S)-3-(3-(difluoromethoxy)-5-fluorophenyl)-5-((3-(trifluoromethyl)phenyl)sulfonyl)-6,6a,7,8,9,10-hexahydro-5H-pyrido[1,2-a]quinoxaline-8-carboxylic acid] | 43.4 nM | 0.65 | 301 nM | 5.4
14 | O=C(O)[C@@H]1CCN2c3ccc(-c4cc(F)cc(OC(F)F)c4)cc3N(S(=O)(=O)c3cccc(C(F)(F)F)c3)C[C@@H]2C1 [Example 117, (6aS,8R)-3-(3-(difluoromethoxy)-5-fluorophenyl)-5-((3-(trifluoro-methyl)phenyl)sulfonyl)-6,6a,7,8,9,10-hexahydro-5H-pyri-do[1,2-a]quinoxaline-8-car-boxylic acid] | 148 nM | – | 627 nM | –
